Data from patent publication US5168102A, “Endocrine manipulation to improve body composition of poultry” (priority 1990, dated 1992).
No end group written: not given here.

What was measured:
[1] = Example 1: body composition (proximate analysis of carcass); format: in vivo, broiler cockerels (Ross X Arbor Acre strain); conditions: for Body composition: Ash / Body composition: Fat / Body composition: Protein / Body composition: Water: N = 8
Text: (§1) The purpose of this study was to determine the effect manipulating blood levels of thyroid hormones and/or growth hormone on growth performance and body composition of broiler chickens. […] Purified natural chicken growth hormone (ncGH) was obtained from the Research and Education Center, Harbor-UCLA Medical Center, Torrance, Calif. […] The premix (200 g) was then used to prepare 50 kg batches of each experimental diet according to the formula for broiler-finisher ration described in Table 1. The diet containing 0.5% PTU was prepared by mixing 250 g of PTU into 49.75 kg of the basal ration (Table 1).
(§2) Broiler cockerels (Ross X Arbor Acre strain) were raised to 3 weeks-of-age in a battery-brooder and then transferred to wire grow-out cages (4 birds/pen) held in two controlled-environment rooms (10 pens/room). Beginning at 3 weeks of age, eight birds (2 pens of 4 birds) were randomly assigned to each of 10 treatments. The chickens were provided the experimental diets and water ad libitum. […] For injection, the ncGH was reconstituted in sterile 0.025M sodium bicarbonate buffer (pH 9.8). The 10 treatments were administered for 21 days (i.e., from 3 to 6 weeks of age).
(§3) Measurement of body weight and feed consumption at weekly intervals allowed calculation of the average daily gain (ADG, g/bird/day), average daily feed consumption (ADFC, g/bird/day) and the feed-to-gain ratio (FIG, kg feed/kg gain) over the 21 day experimental period. Blood samples were taken each week (4, 5, and 6 weeks) just before (pre-injection) and 4 hours post-injection of ncGH. […] At the conclusion of the study, birds were killed and the carcasses frozen for proximate analysis. The frozen carcasses were ground in a meat grinder and aliquots of each ground carcass taken for determination of moisture, protein, fat and ash by established analytical procedures (Official Method of Analysis, Edition 13, W. Horwitz ed., Association of Official Analytical Chemist, Washington, D.C., 1980). Body composition data are presented as a percent of live weight at 6 weeks-of-age. Least squares regression analysis was used to test for significant differences (P<0.05) due treatment.

receptor = conditions: cited from earlier work
[2] = Example 1: plasma hormone concentrations (radioimmunoassays); conditions: for average plasma T3 level: Group 1; for plasma Glucagon (G) / plasma Insulin (I) / I/G Molar Ratio: N = 24
Text: as §1, §2, §3

[3] = Example 1: growth and feed efficiency of broiler cockerels fed thyroid-active substances with or without daily ncGH injection; format: in vivo, broiler cockerels (Ross X Arbor Acre strain); conditions: for BW (body weight): mean ±SEM; for ADFC (average daily feed consumption) / ADG (average daily weight gain) / FTG (feed-to-gain ratio): 21 days
Text: as §1, §2, §3

[4] = supplemented diets; cited from earlier work
[5] = i.v., 21 days, cited from earlier work; for growth rate and feed efficiency: TRH 1 or 10 μg/kg/day, GRF 10 μg/kg/day, alone or in combination
[6] = hypothyroid state; cited from earlier work
[7] = at the doses tested
Text: Referring now to broiler chickens as a benchmark for the beneficial effects of this invention, it must be noted that these chickens grow from a weight of 30 to 50 grams at hatching to about 1.5-3 or even as much as 5 kilograms of body weight at market age. Of this market weight, 15-20 wt.-% is protein, 2-3 wt.-% is inorganic (showing up as ash in proximate analysis of body composition), and more than 10 wt.-% (e.g. 10-20 wt.-%) is fat, which means that the protein:fat ratio (by weight) is likely to be at or below 1.5:1 and certainly well below 2:1.

[8] = injected; commercial preparations from cattle and swine pancreases; cited from earlier work
[9] = injection, finishing pigs; cited from earlier work
[10] = Example 2: plasma hormone concentrations; format: in vivo, broiler cockerels (Ross X Arbor Acre); conditions: 4 hours post-injection of 100 μg ncGH/kg BW at 4, 5 and 6 weeks
Procedure: (§4) Forty-eight 3-week-old broiler cockerels (Ross X Arbor Acre) were randomly divided into four treatment groups that contained three pens of four birds. The birds were housed in a controlled-environment room under a 20 hour light/4 hour dark cycle with feed and water provided ad libitum.
(§5) The preparation of ncGH used in this study was from the same lot used in Example 1.
(§6) Body weights and feed consumption was determined at weekly intervals although the ADG, ADFC and FTG ratio was determined over the 21 day period. […] At the conclusion of the study (6 weeks-of-age), birds were killed and the abdominal fat removed and weighed. The liver and abdominal fat were returned to the carcass which was frozen for proximate analysis as described in […]

[11] = Example 2: growth and feed efficiency, dietary T3 and ncGH injection; format: in vivo, broiler cockerels (Ross X Arbor Acre)
Procedure: as §4, §5, §6

[12] = Example 2: final body weight, liver, abdominal fat and body composition; format: in vivo, broiler cockerels (Ross X Arbor Acre)
Procedure: as §4, §5, §6

[13] = Group 1, dietary, 6 weeks-of-age
[14] = 1 ppm T3, 1 ppm T4, 5 ppm TRH or 0.5% PTU in feed, 3 to 6 weeks of age, Group 1
[15] = Group 2, with daily ncGH injection
[16] = 1 ppm T3 and/or ncGH 100 μg/kg/day, 21 days

N[C@@H](Cc1cc(I)c(Oc2cc(I)c(O)c(I)c2)c(I)c1)C(=O)O [T4, 3-[4-(4-hydroxy-3,5-diiodophenoxy)-3,5-diiodophenyl]-L-alanine]
Body composition: Ash [1, 13]: 2.35 ± .03 % BW | Body composition: Fat [1, 13]: 12.9 ± .41 % BW | Body composition: Protein [1, 13]: 18.2 ± .31 % BW | Body composition: Water [1, 13]: 65.8 ± .29 % BW | metabolic activity of thyroid hormones (receptor): without significant metabolic activity | average plasma T3 level [2]: 3 ng/mL | plasma Glucagon (G) ([2]; Group 1, dietary): 318 pg/mL | plasma Insulin (I) ([2]; Group 1, dietary): 776 pg/mL | BW (body weight) [3, 14]: 1.76 ± .04 kg | ADFC (average daily feed consumption) ([3]; Group 1, dietary): 108.4 ± 3.6 g/bird/day | ADG (average daily weight gain) ([3]; Group 1, dietary): 51.9 ± 3.3 g/bird/day | depressed growth rate in dwarf strains [4]: restored to normal

O=C(O)Cc1cc(I)c(Oc2ccc(O)c(I)c2)c(I)c1 [Triac]
metabolic activity of thyroid hormones (receptor): most active compounds of formula I

GRF: GH-releasing factor; human GRF is a 44 amino acid polypeptide hormone (YADAIFTNSYRKVLGQLSARKLLQDIMSRQQGESNQERGARARL-NH2; ends and bridges not checked; UniProt P01286 32-75, looked up)
plasma GH levels [5]: elevated plasma GH levels | growth rate and feed efficiency [5]: failed to stimulate growth rate or improve feed efficiency

O=C(O)Cc1cc(I)c(Oc2cc(I)c(O)c(I)c2)c(I)c1 [Tetrac]
metabolic activity of thyroid hormones (receptor): most active compounds of formula I

CCCc1cc(=O)[nH]c(=S)[nH]1 [PTU, 6-N-propyl-2-thiouracil]
Body composition: Ash [1, 13]: 2.17 ± .06 % BW | Body composition: Fat [1, 13]: 18.2 ± .80 % BW | Body composition: Protein [1, 13]: 17.2 ± .20 % BW | Body composition: Water [1, 13]: 61.9 ± .73 % BW | body fat content, increase ([1]; vs CF group): 50% | effect on body protein, water and ash ([1]; vs CF group): at the expense of body ash, protein and water | body fat [6]: increased accumulation of body fat | plasma insulin levels [6]: elevated plasma insulin levels | average plasma T3 level [2]: 1.5 ng/mL | I/G Molar Ratio ([2]; Group 1, dietary): 6.35 | plasma Glucagon (G) ([2]; Group 1, dietary): 225 pg/mL | plasma Insulin (I) ([2]; Group 1, dietary): 2349 pg/mL | average plasma T3 level, reduction ([2]; vs CF birds (P<0.05)): 53% | plasma I/G molar ratio, fold greater ([2]; vs CF group (P<0.05)): 2.9 times | plasma GH level, fold higher ([2]; vs CF treatment): 1.9 times | plasma T4 level, reduction ([2]; vs average of CF and TRH treatments (P<0.05)): 76% | BW (body weight) [3, 14]: 1.42 ± .05 kg | effect on growth rate and feed efficiency ([3]; Group 1, dietary): depressed growth rate and reduced feed conversion | ADFC (average daily feed consumption) ([3]; Group 1, dietary): 92.3 ± 7.9 g/bird/day | ADG (average daily weight gain) ([3]; Group 1, dietary): 39.2 ± 4.0 g/bird/day | FTG (feed-to-gain ratio) ([3]; Group 1, dietary): 2.36 ± .04 kg feed/kg gain | final body weight, reduction ([3]; vs birds fed CF or thyroid hormones (P<0.05)): 18% | effect on protein:fat ratio [7]: seemed to decrease the protein:fat ratio

glucagon
biological and metabolic activity in chickens [8]: the same biological and metabolic activity as endogenous glucagon

NC(=O)[C@@H]1CCCN1C(=O)[C@H](Cc1c[nH]cn1)NC(=O)[C@@H]1CCC(=O)N1 [TRH, L-pyroglutamyl-L-histidyl-L-prolinamide]
Body composition: Ash [1, 13]: 2.34 ± .06 % BW | Body composition: Fat [1, 13]: 13.6 ± .88 % BW | Body composition: Protein [1, 13]: 18.1 ± .21 % BW | Body composition: Water [1, 13]: 65.5 ± .73 % BW | body fat content, increase ([1]; vs CF group): 12% | plasma GH levels [5]: elevated plasma GH levels | growth rate and feed efficiency [5]: failed to stimulate growth rate or improve feed efficiency | average plasma T3 level [2]: 3 ng/mL | I/G Molar Ratio ([2]; Group 1, dietary): 1.68 | plasma Glucagon (G) ([2]; Group 1, dietary): 295 pg/mL | plasma Insulin (I) ([2]; Group 1, dietary): 814 pg/mL | BW (body weight) [3, 14]: 1.85 ± .08 kg | ADFC (average daily feed consumption) ([3]; Group 1, dietary): 125.2 ± 5.5 g/bird/day | ADG (average daily weight gain) ([3]; Group 1, dietary): 56.5 ± 0.2 g/bird/day | FTG (feed-to-gain ratio) ([3]; Group 1, dietary): 2.21 ± 0.1 kg feed/kg gain | ADFC rate, increase ([3]; vs CF group, not significant): 11% | ADG, increase ([3]; vs CF group, not significant): 9% | body weight (BW), increase ([3]; vs CF group, not significant): 6% | effect on protein:fat ratio [7]: seemed to decrease the protein:fat ratio

B1: pGH: purified porcine growth hormone (pGH) (protein, UniProt P01248 27-216, looked up)
Somatotropin: FPAMPLSSLFANAVLRAQHLHQLAADTYKEFERAYIPEGQRYSIQNAQAAFCFSETIPAPTGKDEAQQRSDVELLRFSLLLIQSWLGPVQFLSRVFTNSLVFGTSDRVYEKLKDLEEGIQALMRELEDGSPRAGQILKQTYDKFDTNLRSDDALLKNYGLLSCFKKDLHKAETYLRVMKCRRFVESSCAF
carcass fat content, reduction [9]: 18-25% | feed conversion, improvement [9]: 7-19% | growth rate, increase [9]: 10-14% | muscle mass, increase [9]: 24-36%

B2: GH: Purified natural chicken growth hormone (ncGH) (protein, UniProt P08998 26-216, looked up)
Somatotropin: TFPAMPLSNLFANAVLRAQHLHLLAAETYKEFERTYIPEDQRYTNKNSQAAFCYSETIPAPTGKDDAQQKSDMELLRFSLVLIQSWLTPVQYLSKVFTNNLVFGTSDRVFEKLKDLEEGIQALMRELEDRSPRGPQLLRPTYDKFDIHLRNEDALLKNYGLLSCFKKDLHKVETYLKVMKCRRFGESNCTI
Body composition: Ash [1, 15]: 2.20 ± .04 % BW | Body composition: Fat [1, 15]: 14.5 ± .52 % BW | Body composition: Protein [1, 15]: 18.1 ± .15 % BW | Body composition: Water [1, 15]: 64.7 ± .51 % BW | average plasma GH concentration, fold over pre-injection [10]: 4 times | average plasma GH concentration ([2]; 4 hours post-injection of 100 μg ncGH/kg BW, Group 2): 62 ng/mL | average plasma GH concentration, fold over pre-injection ([2]; 4 hours post-injection of 100 μg ncGH/kg BW, Group 2 (P<0.05)): 3 times | I/G Molar Ratio [2, 15]: 2.28 | plasma Glucagon (G) [2, 15]: 298 pg/mL | plasma Insulin (I) [2, 15]: 1107 pg/mL | ADFC (average daily feed consumption) [3, 15]: 115.8 ± 1.8 g/bird/day | ADG (average daily weight gain) [3, 15]: 57.0 ± 0.4 g/bird/day | FTG (feed-to-gain ratio) [3, 15]: 2.03 ± .02 kg feed/kg gain | BW (body weight) ([3]; Group 2: daily i.m. 100 ug ncGH/kg with CF, 1 ppm T3, 1 ppm T4 or 5 ppm TRH in feed, 3 to 6 weeks): 1.83 ± .04 kg | feed efficiency, improvement ([3]; vs FTG ratio of CF+BI group (P<0.05)): 9% | ADFC [11, 16]: 115.4 ± 3.5 g/bird/day | FTG [11, 16]: 2.18 ± .05 kg feed/kg gain | ADG ([11]; 1 ppm T3 in feed and/or ncGH 100 μg/kg/day i.m., 3 to 6 weeks, mean ±SEM of 3 pens): 53.0 ± 2.8 g/bird/day | effect on ADG, ADFC and FTG ratio ([11]; 21 days): not affected | effect on protein:fat ratio [7]: seemed to decrease the protein:fat ratio | Body Weight (BW), final ([12]; 1 ppm T3 and/or ncGH 100 μg/kg/day, 6 weeks-of-age, N = 12): 1.88 ± .051 kg | effect on final body weight, relative liver weight, abdominal fat ([12]; 6 weeks-of-age): did not affect growth performance, final body weight, relative liver weight or abdominal fat content | Abdominal Fat, relative weight ([12]; N = 12): 2.56 ± .178 % BW | Body composition: Ash ([12]; N = 12): 2.23 ± .058 % BW | Body composition: Fat ([12]; N = 12): 15.9 ± .32 % BW | Body composition: Protein ([12]; N = 12): 17.0 ± .17 % BW | Body composition: Water ([12]; N = 12): 63.7 ± .33 % BW | Liver, relative weight ([12]; N = 12): 2.74 ± .102 % BW
